Measurements from patent US5587397A, “Reduction of elevated blood lactate using twice-daily dichloroacetate” (Cypros Pharmaceutical Corporation, priority 1995, dated 1996).
Entries after “also recorded” stand apart in the source; their conditions may differ. Read-outs that look alike come from different tables or passages of the source.

Experiments:
serum lactate = assay: Serum/blood lactate concentration in human volunteers after intravenous DCA infusion; assay type: in vivo; conditions: for Serum lactate, baseline: before infusion; for Serum lactate, baseline / Serum lactate just before second infusion / Serum lactate 14 h after second infusion: mean ± SEM; for Serum lactate just before second infusion: second infusion 8 h later; for Level of statistical significance, (b) vs. placebo: just before second infusion; for Persistence of lactate reduction relative to DCA clearance: 60 mg/kg
Protocol: Eighteen human beings entered this study; all provided informed consent that was acceptable to an independent Institutional Review Board, which also approved the study design and toxicological coverage. The human subjects were all healthy, were fasted for 18 hours prior to the study infusions, and were all within 85% to 115% of ideal body weight, using actuarial tables published by the Metropolitan Life Insurance Company. Each received an accurately measured meal (late breakfast, 821 kcal total including 116 g of carbohydrate, 30 g of protein, and 32 g of fat).
(§1) Teflon venous catheters were placed in both forearms of all subjects. One, for drug administration, was left in place for 10 hours. The other, for blood sampling, was left in place for about 30 hours. Both venous cannulae were regularly flushed with a heparin-saline solution to avoid any risk of clogging or clotting. When blood was sampled, the first-drawn fluid was discarded, so that blood samples were not contaminated with the heparin-saline solution.
(§2) Sodium dichloroacetate (NaDCA; purchased in powdered form from TCI America, Inc., Portland, Oreg.) was dissolved in saline solution to provide a 10% sterile solution (i.e., 10 g of NaDCA in 100 ml solution) at a contract lab. The vials containing 10% solution were shipped to the study site, in Indiana, and then diluted to form approximately 2% solutions in intravenous drip bags. Exact concentrations depended to some extent on the weight of each patient; all concentrations were within 20 % of isotonic levels. A 2% solution was administered through one cannula into each test subject over a period of 30 minutes, at a dosage of 30 mg/kg (i.e, 30 milligrams of NaDCA salt per kilogram of body weight). The average total weight of NaDCA infused into each patient was about 2.26±0.54 g; total volume of solution was about 100 ml. […] Nine subjects received a single infusion of DCA, and nine received the saline placebo.
(§3) Samples of venous blood from the other cannula (in the opposite forearm) were taken, before and several times periodically after the intravenous infusion. The infusions were number-coded, and all solutions (both active and placebo) were colorless; therefore, this was a double-blinded study.
Blood samples were collected into tubes containing sodium heparin, and spun at 64 G (i.e., 64 times normal gravity) for 10 minutes, to remove blood cells. The supernatant was then deproteinized, using 6% perchloric acid; various other agents, such as acetonitrile, could alternately be used if desired. The deproteinized liquid was then centrifuged again at 64 G for 10 minutes, and the supernatant was decanted and divided into 0.20 mL aliquots. At least one aliquot was stored at -40° C. as a backup in case checks were needed, while tests were run on other aliquots.
Blood samples were assayed for lactate concentration at a registered clinical laboratory (SmithKline Beckman, in Evansville, Ind.), using a commercial assay kit sold by Sigma Chemical Company (St. Louis, Mo.). This assay uses an enzymatic procedure involving lactate dehydrogenase; it adds glycine to the samples as a buffer, along with a standardized excess amount of NAD. The lactate dehydrogenase enzyme converts lactate to pyruvate, and the hydrogen atoms that are liberated by this reaction convert NAD to reduced NAD (NADH). The NADH absorbs ultraviolet light at 340 nm, and the level of absorbance (measured by a spectrophotometer) is directly proportional to the amount of NADH in the sample, and thus to the amount of lactate that was initially present in the sample.
In a second set of test subjects (18 total: 9 test subjects and 9 saline placebo controls), sodium DCA was administered in an identical manner, using a single 30-minute infusion, at a dosage of 60 mg/kg. […]

[1] = humans, cited from earlier work
[2] = Reported DCA concentration and clearance in rats (literature); assay type: in vivo, rat; conditions: oral 100 mg/kg vs. human i.v.
Protocol: Evans et al 1981 administered DCA orally, in 100 mg/kg doses, either once, or daily for seven days.

[3] = Side effects of DCA infusion in healthy volunteers; assay type: in vivo, human; conditions: 100 mg/kg infused within 30 minutes
Protocol: Accordingly, to ensure that this effect would not occur when DCA was administered, an initial dose of 100 mg/kg NaDCA was infused into test subjects, and a second dose of 50 mg/kg was infused 8 hours later.
The dose of 100 mg/kg is the highest dose so far administered to human beings within 30 minutes. […] This was not considered clinically significant and needed no treatment; it would be relatively unimportant in most of the pathological states that are proper subjects for treatment using DCA. However, the sedation side effect was regarded as creating a practical limit (100 mg/kg infused in 30 minutes or less) for tests on healthy volunteers.

[4] = dogs; Lukas et al 1980, Ribes et al 1979; cited from earlier work
[5] = DCA clearance from the blood of human subjects after intravenous infusion; assay type: in vivo
Protocol: as §1, §2, §3
Blood samples were collected into tubes containing sodium heparin, and spun at 64 G (i.e., 64 times normal gravity) for 10 minutes, to remove blood cells. The supernatant was then deproteinized, using 6% perchloric acid; various other agents, such as acetonitrile, could alternately be used if desired. […]

[6] = cited from earlier work
[7] = Reported DCA pharmacokinetics in dogs (literature); assay type: in vivo, dog; conditions: dogs vs. 0.5 hour in humans
From the text: Accordingly, dogs cannot be used as reliable models or predictors for the pharmacokinetic effects of DCA in humans.

[8] = system: pyruvate dehydrogenase enzyme complex; conditions: rats; Evans 1982; cited from earlier work
[9] = especially over prolonged periods, Stacpoole et al 1979; cited from earlier work
[10] = 100 + 50 group, 14 h after second infusion

O=C([O-])C(Cl)Cl.[Na+] [DCA, sodium dichloroacetate]
Duration of blood lactate reduction (FIG. 3 legend) (serum lactate; 60 mg/kg as printed in legend): more than 8 hours | Persistence of reduction in serum lactate after the first infusion (serum lactate; 100 mg/kg followed by 50 mg/kg 8 hours later): more than 22 hours | Duration of lactate reduction (serum lactate; 100 mg/kg single i.v. infusion): > 8 h | Persistence of lactate reduction relative to serum DCA (serum lactate; 100 mg/kg single i.v. infusion, in words): persistent reduction in serum lactate levels which significantly outlasted the serum DCA concentrations | Serum lactate, baseline (serum lactate; 60 + 30 group (mg/kg)): 1.19 ± 0.24 mM | Serum lactate just before second infusion (serum lactate; 60 + 30 group (mg/kg)): 0.72 ± 0.15 mM | Serum lactate 14 h after second infusion (serum lactate; 60 + 30 group (mg/kg)): 0.94 ± 0.12 mM | Level of statistical significance, (c) vs. placebo (serum lactate; 60 + 30 group, 14 h after second infusion): 0.021 | Level of statistical significance, (b) vs. placebo (serum lactate; 60 + 30 group): 0.009 | Serum lactate, baseline (serum lactate; 100 + 50 group (mg/kg)): 0.84 ± 0.10 mM | Serum lactate just before second infusion (serum lactate; 100 + 50 group (mg/kg)): 0.39 ± 0.04 mM | Serum lactate 14 h after second infusion (serum lactate; 100 + 50 group (mg/kg)): 0.32 ± 0.08 mM | Level of statistical significance, (c) vs. 60 + 30 (serum lactate; [10]): 0.004 | Level of statistical significance, (c) vs. placebo (serum lactate; [10]): < 0.001 | Level of statistical significance, (b) vs. placebo (serum lactate; 100 + 50 group): < 0.001 | Time course of DCA concentration and lactate reduction (serum lactate; single 30 mg/kg i.v. infusion, in words, FIG. 1, 30 mg/kg): a peak of DCA concentration which rapidly dropped off, and a similar peak in lactate reduction which disappeared fairly rapidly; also recorded: closely paralleled (over time) the clearance of DCA from the blood | Duration of blood lactate reduction (serum lactate; single 30 mg/kg i.v. infusion, in words, 30 mg/kg): returned to normal levels within a few hours | Duration of blood lactate reduction (serum lactate; single 30 mg/kg i.v. infusion, in words, listed as NaDCA, 30 mg/kg): lasted only a few hours | Reversal of the decline in serum lactate levels (serum lactate; single 60 mg/kg i.v. infusion, at 6.5 hours and afterwards): no evidence of reversal of the decline in serum lactate levels | Persistence of lactate reduction relative to DCA clearance (serum lactate; single 60 mg/kg i.v. infusion, in words): significantly outlasted the persistence of serum DCA levels | Persistence of lactate reduction relative to DCA clearance (serum lactate; single 60 mg/kg i.v. infusion, in words, listed as NaDCA): lasted substantially longer and persisted even after substantially all of the DCA had been cleared from the patient's blood; also recorded: substantially outlasted the clearance of DCA from the circulation | Duration of reduction in plasma lactate after start of second infusion (serum lactate; two infusions eight hours apart): more than 12 hours | Duration of serum lactate reduction using two injections over 24 h (serum lactate; two injections, about 40 mg/kg DCA or more per injection): ≥ 24 h | Half-life ([1]; Lukas et al 1980, Ribes et al 1979): 30 min | Half-life ([1]; Wells et al 1980): 31 min | Time to complete elimination ([1]; Wells et al 1980): ≤ 5 h | Clearance from circulating blood ([1]; in words): rapidly cleared | Inferred plasma concentration relative to that in human patients dosed intravenously [2]: about 1/10 | Duration of transient sedation or sleepiness [3]: about 20 minutes | Transient sedation or sleepiness [3]: a number of subjects reported transient sedation or sleepiness | Half-life [4]: 19 to 24 h | Clearance rate of 30 mg/kg dose with vs. without prior DCA exposure ([5]; 30 mg/kg i.v., prior 60 mg/kg 8 hours earlier, FIG. 4): comparable | Clearance rate of 50 mg/kg dose after prior exposure vs. single 60 mg/kg dose ([5]; 50 mg/kg i.v., prior 100 mg/kg 8 hours earlier): similar | DCA clearance from blood ([5]; single 60 mg/kg i.v., by 6.5 hours): nearly all of the DCA had already been avidly cleared from the blood | Peak DCA concentration in liver tissue ([6]; oral 100 mg/kg, once or daily for seven days, Evans et al 1981): about 25 μg of DCA per gram of liver tissue | DCA concentration in the liver over time ([6]; rats, Evans 1982): declined rapidly with time | DCA clearance ([6]; rats, in words): fairly rapid | Half-life in dogs relative to humans [7]: about 40 times longer | Activation of the pyruvate dehydrogenase enzyme complex over time [8]: dropped off rapidly with time | Toxic effects of oral administration [9]: may have toxic effects
